Tested on: mouse model of retinal light disorders
Experiment: Retinal light disorder model test (ONL thickness)
Format: in vivo
Details: BALB/cCr male mouse, 30 mg/kg oral 30 minutes before 2 hours white light, eyes taken after 4 days
Method: (Retinal Light Disorder Model Test)
The usefulness (improvement rate with respect to retinal light disorders) of the compound of the invention was evaluated using a mouse model of retinal light disorders, generally used as a model of retinal light disorders, (Investigative Ophthalmology & Visual Science, 2002; vol. 43; pp. 1162 to 1167). Here, the improvement rate with respect to the retinal light disorders was calculated based on the thickness of an outer nuclear layer (hereinafter, referred to as “ONL”), which is strongly interfered especially by light application among a retinal cell layers, in a tissue specimen of a perpendicular surface of an eyeball.
Moreover, in the present test, the ONL of a light application group to which only a base was administered was degraded to 30% to 50% of a normal light group.
A test compound was dissolved or suspended in a solvent (1% (w/v) methyl cellulose aqueous solution) and then an administration liquid was prepared so that the test compound to be 30 mg/kg body weight. The dose was set to 10 ml/kg body weight.
A 5-week-old BALB/cCr-based male mouse (weight of approximately 20 g) was bred in a dark place for 48 hours. Subsequently, the test compound administration liquid was orally administered (30 mg/kg). After 30 minutes, […] of white light was continuously applied to the mouse for 2 hours. Next, the mouse was bred in a breeding room with 50 lux of light for 4 days.
An anesthetic (secobarbital sodium) was intraperitoneally administered to anesthetize the mouse and then the mouse was exsanguinated to die. The top portion of the right eyeball was marked with a thread and the eyeball was extracted. […]
The ONL thickness in the tissue specimen was measured for every 200 μm between the optic nerve papilla to where upwardly spaced by 1 mm from the optic nerve papilla using Lumina Vision. The area (AUC) from the optic nerve papilla to where upwardly spaced by 1 mm from the optic papilla in the graph was calculated as an ONL area. […]

Structure (SMILES) | ONL thickness improvement rate
CC(=O)N1CCN(c2ccc([N+](=O)[O-])c(-n3ccnc3)c2)CC1 [2-imidazole-1-yl-4-(acetylpiperazine-1-yl)nitrobenzene, reference compound] | 29.2%
CC(=O)NC1CCN(c2ccc(N)c(-n3ccnc3)c2)C1 (centres unmarked) [Compound 3-1, 3-acetylamino-1-(4-amino-3-imidazole-1-yl-phenyl)pyrrolidine] | 87.2%

From US20160145242A1, “PHENYLIMIDAZOLE DERIVATIVE, AND THERAPEUTIC MEDICINE OR PREVENTIVE MEDICINE FOR INFLAMMATORY DISEASE, ETC” (NIPPON SODA CO., LTD., priority 2013, published 2016)
